Test results as given in patent US8808771B2, “Active ingredient delivery system with an amorphous metal salt as carrier” (Firmenich SA, priority 2006, dated 2014).

Assay: Extinction coefficient (phenol band at 280 nm) before and after addition of ACAP, entrapment of naringin
Assay type: physicochemical
Conditions: for E-value (extinction coefficient, phenol band at 280 nm): diluted 1:12 with 30 wt % ethanolic solution, slightly acidic
Experimental: A conventional double jet precipitation process, which can be operated both batch wise and in a continuous mode, was used. The active ingredient (Naringin) was firstly dissolved in ethanol or ethanol/water medium. A first stream comprising Ca^2+ ions (provided as calcium chloride solution) and a second stream comprising PO4^3− ions (provided as sodium phosphate), were prepared in order to give a resulting carrier component comprising ACAP solution at 10 g/L. A third stream comprising a standard solution of 2 g/L of naringin in 30% ethanol solution was then prepared.
The three streams were jetted separately into a mixing chamber using a standard y-mixer with the reaction being stopped for equal volumes, i.e. 10 ml Ca^2+ stock solution plus 10 ml PO4^3− stock solution into 10 ml naringin. The extinction coefficient (strong phenol band at 280 nm, slightly acidic conditions) was determined after standardized dilution with 30 wt % ethanolic solution (1:12) and was compared before and after the addition of the ACAP.

## C[C@@H]1O[C@@H](O[C@H]2[C@H](Oc3cc(O)c4c(c3)O[C@H](c3ccc(O)cc3)CC4=O)O[C@H](CO)[C@@H](O)[C@@H]2O)[C@H](O)[C@H](O)[C@H]1O [naringin, Naringin]
After addition of ACAP
  E-value (extinction coefficient, phenol band at 280 nm): 1.5
Before addition of ACAP
  E-value (extinction coefficient, phenol band at 280 nm): 3.75
Calculated from the lowering of the E-value
  naringin entrapped by the ACAP: at least 70%
